The source of these data is patent US12516056B2, “Compounds for inhibition of janus kinase 1” (MANKIND PHARMA LTD., priority 2019, dated 2026).

For assay [1], the target named is T1, Recombinant JAK1 (Homo sapiens, UniProt P23458).
T1 construct: purchased Carna Biosciences
As to the kind of experiment: JAK biochemical assay (LANCE Ultra TR-FRET), JAK1. To be noted: recombinant JAK1, TR-FRET; read-out: Biochemical Assay (μM) JAK1. In short, it runs like this: (§1)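 Kinase reactions ran in buffer of 50 mM HEPES pH 7.5 with 1 mM EGTA, 10 mM MgCl2, 2 mM DTT and 0.01% Tween-20, using recombinant enzyme. Phosphorylated ULight substrate was detected by TR-FRET, and compound effect expressed as % inhibition against vehicle.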

Assay [2] concerns the target T2, Recombinant JAK2 (Homo sapiens, UniProt O60674).
T2 construct: purchased Carna Biosciences
As to the kind of experiment: JAK biochemical assay (LANCE Ultra TR-FRET), JAK2. Particulars: recombinant JAK2, TR-FRET; read-out: Biochemical Assay (μM) JAK2. In short, it runs like this:
as §1

Assay [3] addresses T3, Recombinant JAK3 (Homo sapiens, UniProt P52333).
T3 construct: purchased Carna Biosciences
T3 sequence (P52333 1-1124): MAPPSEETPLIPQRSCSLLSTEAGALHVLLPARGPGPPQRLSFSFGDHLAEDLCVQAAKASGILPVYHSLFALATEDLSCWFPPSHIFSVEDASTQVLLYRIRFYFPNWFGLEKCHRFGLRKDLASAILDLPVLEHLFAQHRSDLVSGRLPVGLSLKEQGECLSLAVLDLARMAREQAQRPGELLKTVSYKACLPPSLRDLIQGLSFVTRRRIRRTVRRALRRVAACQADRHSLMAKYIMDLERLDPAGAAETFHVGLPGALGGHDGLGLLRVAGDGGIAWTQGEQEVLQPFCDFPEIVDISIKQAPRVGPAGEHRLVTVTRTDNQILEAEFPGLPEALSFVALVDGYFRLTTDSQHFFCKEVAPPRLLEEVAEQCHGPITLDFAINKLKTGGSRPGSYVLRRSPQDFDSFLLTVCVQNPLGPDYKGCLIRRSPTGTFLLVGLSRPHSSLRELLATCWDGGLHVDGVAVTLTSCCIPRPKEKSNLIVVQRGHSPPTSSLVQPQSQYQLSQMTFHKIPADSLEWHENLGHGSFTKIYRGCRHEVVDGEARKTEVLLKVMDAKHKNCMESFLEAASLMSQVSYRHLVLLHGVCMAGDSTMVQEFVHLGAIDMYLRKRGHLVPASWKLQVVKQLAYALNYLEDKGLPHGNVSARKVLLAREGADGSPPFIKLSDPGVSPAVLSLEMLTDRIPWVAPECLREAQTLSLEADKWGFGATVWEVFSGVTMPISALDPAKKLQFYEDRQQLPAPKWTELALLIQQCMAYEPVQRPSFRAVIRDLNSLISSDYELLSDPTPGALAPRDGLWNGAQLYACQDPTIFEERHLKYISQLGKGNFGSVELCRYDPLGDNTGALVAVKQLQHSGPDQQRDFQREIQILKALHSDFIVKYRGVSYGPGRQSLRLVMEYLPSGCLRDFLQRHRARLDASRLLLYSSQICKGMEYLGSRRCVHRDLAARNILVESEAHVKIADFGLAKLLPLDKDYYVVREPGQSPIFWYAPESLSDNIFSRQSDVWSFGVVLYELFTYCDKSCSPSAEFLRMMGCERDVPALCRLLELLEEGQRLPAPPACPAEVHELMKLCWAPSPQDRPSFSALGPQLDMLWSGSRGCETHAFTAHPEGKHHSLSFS
The assay is described as follows: JAK biochemical assay (LANCE Ultra TR-FRET), JAK3. Particulars: recombinant JAK3, TR-FRET; read-out: Biochemical Assay (μM) JAK3. In short, it runs like this:
as §1

Assay [4] has as its target T4, Recombinant TYK2 (Homo sapiens, UniProt P29597).
T4 construct: purchased Carna Biosciences
The assay is described as follows: JAK biochemical assay (LANCE Ultra TR-FRET), TYK2. Particulars: recombinant TYK2, TR-FRET; read-out: Biochemical Assay (μM) TYK2. In short, it runs like this: as §1

For assay [5], the system named is STAT3 phosphorylation by IL-6 in TF-1 cells. As to the kind of experiment: JAK cellular assay: STAT3 phosphorylation by IL-6 in TF-1 cells (HTRF). The assay is classed as cell-based. To be noted: Homo sapiens, TF-1, TF-1 cells, IL-6 30 ng/ml, pSTAT3 HTRF; read-out: Cell Based Assay (μM) TF-1/IL-6/pSTAT3. In short, it runs like this:
(§2)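 Phospho-STAT3 (IL-6, 30 ng/ml) and phospho-STAT5 (GMCSF, 5 ng/ml) read by HTRF in lysates after 20 min cytokine exposure, minus unstimulated-cell background. Cells were serum-starved overnight, plated at 120,000/well, given compound 30 min at 37 °C beforehand; DMSO 0.2% final.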

The test system of assay [6] is STAT5 phosphorylation by IL-2 in HT-2 cells. As to the kind of experiment: STAT5 phosphorylation by IL-2 in HT-2 cells (HTRF). It is filed as cell-based. Particulars: HT2, HT-2 cells, IL-2 50 U/ml, pSTAT5 HTRF; read-out: Cell Based Assay (μM) HT-2/IL-2/pSTAT5. The method, then:
HT-2 cells were starved […] in RPMI phenol red with 10% fetal bovine serum for 4 hours in CO2 incubator maintained at 37° c. Compounds were diluted in DMSO and added to 96 well plate containing a final density of 1,20,000 cells per well. Cells and compounds are incubated for 30 minutes in CO2 incubator maintained at 37° C. and final DMSO concentration in cell based assay was 0.2%. Human recombinant cytokine, IL-2 (50 U/ml) was added to the plate containing cells and compound and incubated for 20 minutes with gentle tapping/shaking at every 5 minutes once. Compound mediated effects on STAT5 phosphorylation was measured in the lysates prepared by using CISBIO pSTAT5 detection kit by HTRF method. Background signal obtained from cells which were not activated with cytokines, was subtracted from vehicle controls and compound treated wells.

Assay [7] relates to STAT5 phosphorylation by GMCSF in TF-1 cells. The assay is described as follows: JAK cellular assay: STAT5 phosphorylation by GMCSF in TF-1 cells (HTRF). It is filed as cell-based. Particulars: Homo sapiens; TF-1 cells, GMCSF 5 ng/ml, pSTAT5 HTRF; read-out: Cell Based Assay (μM) TF-1/GMCSF/pSTAT5. In short, it runs like this:
as §2

Structures are written as SMILES. Bounds are passed on as bounds.

T4 sequence (P29597 whole entry): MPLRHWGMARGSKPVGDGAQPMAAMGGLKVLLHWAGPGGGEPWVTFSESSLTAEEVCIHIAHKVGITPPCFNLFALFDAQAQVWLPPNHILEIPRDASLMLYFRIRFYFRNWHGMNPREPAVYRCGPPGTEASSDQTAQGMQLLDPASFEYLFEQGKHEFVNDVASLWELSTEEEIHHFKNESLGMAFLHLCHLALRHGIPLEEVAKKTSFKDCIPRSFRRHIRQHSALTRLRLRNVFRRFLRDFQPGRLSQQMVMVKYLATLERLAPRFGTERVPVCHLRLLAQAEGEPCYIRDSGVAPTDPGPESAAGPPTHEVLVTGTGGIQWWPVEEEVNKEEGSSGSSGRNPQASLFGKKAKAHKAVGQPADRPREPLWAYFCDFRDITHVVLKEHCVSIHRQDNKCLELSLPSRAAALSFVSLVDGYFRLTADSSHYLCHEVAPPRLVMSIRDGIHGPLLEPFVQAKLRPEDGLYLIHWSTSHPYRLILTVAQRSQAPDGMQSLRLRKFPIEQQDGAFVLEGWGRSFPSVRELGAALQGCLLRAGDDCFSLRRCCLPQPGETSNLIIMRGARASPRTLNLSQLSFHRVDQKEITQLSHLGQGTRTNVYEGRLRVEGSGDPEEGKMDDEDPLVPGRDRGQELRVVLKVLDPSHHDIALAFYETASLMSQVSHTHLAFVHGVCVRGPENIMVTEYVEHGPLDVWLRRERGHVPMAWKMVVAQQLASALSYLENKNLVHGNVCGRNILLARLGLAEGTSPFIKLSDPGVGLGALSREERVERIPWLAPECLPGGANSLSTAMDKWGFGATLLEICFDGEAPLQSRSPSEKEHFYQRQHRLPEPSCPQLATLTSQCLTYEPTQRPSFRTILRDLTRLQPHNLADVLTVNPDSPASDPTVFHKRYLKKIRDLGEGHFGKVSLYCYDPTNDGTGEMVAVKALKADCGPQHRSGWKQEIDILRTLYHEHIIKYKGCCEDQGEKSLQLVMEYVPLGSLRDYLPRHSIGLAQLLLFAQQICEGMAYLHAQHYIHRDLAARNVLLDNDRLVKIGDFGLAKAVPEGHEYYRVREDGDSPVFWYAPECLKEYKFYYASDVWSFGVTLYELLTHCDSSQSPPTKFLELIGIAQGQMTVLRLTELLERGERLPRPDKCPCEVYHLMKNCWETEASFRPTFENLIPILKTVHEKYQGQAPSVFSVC
T2 sequence (O60674 whole entry): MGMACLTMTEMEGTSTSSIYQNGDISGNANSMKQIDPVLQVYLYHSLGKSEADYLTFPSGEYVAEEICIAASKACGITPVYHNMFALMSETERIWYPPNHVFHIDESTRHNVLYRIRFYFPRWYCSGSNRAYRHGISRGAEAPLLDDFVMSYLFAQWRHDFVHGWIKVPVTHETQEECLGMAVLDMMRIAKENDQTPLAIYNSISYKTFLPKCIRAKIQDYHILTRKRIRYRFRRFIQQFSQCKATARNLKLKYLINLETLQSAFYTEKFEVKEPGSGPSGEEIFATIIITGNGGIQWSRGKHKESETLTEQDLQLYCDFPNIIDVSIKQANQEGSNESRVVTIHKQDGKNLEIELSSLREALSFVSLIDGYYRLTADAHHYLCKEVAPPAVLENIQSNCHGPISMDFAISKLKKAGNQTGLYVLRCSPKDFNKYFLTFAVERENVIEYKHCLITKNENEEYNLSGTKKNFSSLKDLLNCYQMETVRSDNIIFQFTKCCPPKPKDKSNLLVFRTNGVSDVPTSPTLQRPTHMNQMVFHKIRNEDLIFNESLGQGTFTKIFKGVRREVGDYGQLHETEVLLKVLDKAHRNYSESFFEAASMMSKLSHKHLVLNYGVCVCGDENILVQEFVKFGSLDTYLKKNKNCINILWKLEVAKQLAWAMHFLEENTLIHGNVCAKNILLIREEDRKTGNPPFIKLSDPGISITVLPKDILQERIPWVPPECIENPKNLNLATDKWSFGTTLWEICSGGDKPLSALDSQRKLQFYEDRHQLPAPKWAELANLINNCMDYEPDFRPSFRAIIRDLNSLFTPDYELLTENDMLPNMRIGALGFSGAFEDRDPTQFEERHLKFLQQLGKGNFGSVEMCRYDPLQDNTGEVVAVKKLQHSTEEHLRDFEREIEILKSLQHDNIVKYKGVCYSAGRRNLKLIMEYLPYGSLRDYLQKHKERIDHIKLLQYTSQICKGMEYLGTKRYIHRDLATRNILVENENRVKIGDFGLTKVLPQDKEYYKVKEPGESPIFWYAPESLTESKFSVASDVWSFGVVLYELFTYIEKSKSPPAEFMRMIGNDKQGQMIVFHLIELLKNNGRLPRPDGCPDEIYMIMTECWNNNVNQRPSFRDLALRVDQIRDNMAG
T1 sequence (P23458 whole entry): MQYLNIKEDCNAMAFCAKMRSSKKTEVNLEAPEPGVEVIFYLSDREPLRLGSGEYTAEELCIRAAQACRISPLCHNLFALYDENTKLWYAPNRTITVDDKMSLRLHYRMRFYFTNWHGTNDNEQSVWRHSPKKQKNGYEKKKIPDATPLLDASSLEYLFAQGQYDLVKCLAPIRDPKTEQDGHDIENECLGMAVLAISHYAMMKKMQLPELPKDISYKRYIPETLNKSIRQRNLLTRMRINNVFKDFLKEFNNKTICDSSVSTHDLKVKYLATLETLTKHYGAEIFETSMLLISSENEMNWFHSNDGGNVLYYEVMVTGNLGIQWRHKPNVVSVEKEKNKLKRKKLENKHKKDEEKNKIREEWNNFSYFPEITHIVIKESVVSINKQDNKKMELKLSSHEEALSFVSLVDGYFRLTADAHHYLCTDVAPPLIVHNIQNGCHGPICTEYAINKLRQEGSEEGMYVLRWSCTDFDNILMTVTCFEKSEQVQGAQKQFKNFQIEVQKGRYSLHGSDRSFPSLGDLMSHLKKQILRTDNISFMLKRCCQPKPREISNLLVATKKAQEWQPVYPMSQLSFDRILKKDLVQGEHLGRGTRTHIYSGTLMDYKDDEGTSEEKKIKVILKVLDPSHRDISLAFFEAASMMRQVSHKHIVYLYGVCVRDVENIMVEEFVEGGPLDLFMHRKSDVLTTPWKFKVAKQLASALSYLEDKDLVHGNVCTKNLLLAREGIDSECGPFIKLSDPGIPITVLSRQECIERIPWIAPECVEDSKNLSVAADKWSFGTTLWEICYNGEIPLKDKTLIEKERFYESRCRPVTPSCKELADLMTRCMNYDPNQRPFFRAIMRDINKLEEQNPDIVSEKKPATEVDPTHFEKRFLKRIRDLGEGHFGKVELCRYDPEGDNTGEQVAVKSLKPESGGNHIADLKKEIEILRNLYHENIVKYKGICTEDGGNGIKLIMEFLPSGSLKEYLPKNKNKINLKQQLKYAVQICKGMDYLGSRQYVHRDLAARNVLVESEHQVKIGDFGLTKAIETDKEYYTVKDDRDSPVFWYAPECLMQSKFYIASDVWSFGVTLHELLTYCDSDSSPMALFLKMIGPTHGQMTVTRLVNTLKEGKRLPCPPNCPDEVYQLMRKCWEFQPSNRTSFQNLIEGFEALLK

Turning to `OC(CCN1CCOCC1)(c1ccc(-n2cc(-c3ccnc4[nH]cnc34)cn2)nc1)C(F)(F)F` (stereo not shown) [Example 1230, 2-(6-(4-(3H-imidazo[4,5-b]pyridin-7-yl)-1H-pyrazol-1-yl)pyridin-3-yl)-1,1,1-trifluoro-4-morpholinobutan-2-ol], the IC50 was below 0.1 µM in assay [1]; below 0.1 µM in assay [2]; below 0.1 µM in assay [3]; above 0.5 µM in assay [4]; above 0.5 µM in assay [5]; above 0.5 µM in assay [6].

In the case of `CC(C)NCC[C@@H](c1ccc(-n2cc(-c3ccnc4[nH]cnc34)cn2)nc1)C(F)(F)F` [Example 1207, (S)-3-(6-(4-(3H-imidazo[4,5-b]pyridin-7-yl)-1H-pyrazol-1-yl)pyridin-3-yl)-4,4,4-trifluoro-N-isopropylbutan-1-amine], the IC50 is 0.005 µM in assay [1]; 0.01 µM in assay [2]; 0.005 µM in assay [3]; above 0.5 µM in assay [4]; 0.43 µM in assay [5]; 1.08 µM in assay [6].

Turning to `N#CCCC(c1ccc(-n2cc(-c3ccnc4[nH]cnc34)cn2)nc1)C(F)(F)F` (stereo not shown) [Example 1156, 4-(6-(4-(3H-imidazo[4,5-b]pyridin-7-yl)-1H-pyrazol-1-yl)pyridin-3-yl)-5,5,5-trifluoropentanenitrile], the IC50 is above 0.1 µM in assay [1]; above 0.5 µM in assay [2]; above 0.5 µM in assay [3]; above 1 µM in assay [4]; above 0.5 µM in assay [5]; above 1 µM in assay [6].

As for `O=S(=O)(CC[C@@H](c1ccc(-n2cc(-c3ccnc4[nH]cnc34)cn2)nc1)C(F)(F)F)C1CC1` [Example 1216, 7-(1-(5-((S)-4-(cyclopropylsulfonyl)-1,1,1-trifluorobutan-2-yl)pyridin-2-yl)-1H-pyrazol-4-yl)-3H-imidazo[4,5-b]pyridine], the IC50 is below 0.1 µM in assay [1]; below 0.1 µM in assay [2]; below 0.1 µM in assay [3]; above 0.5 µM in assay [4]; 0.28 µM in assay [5]; 0.51 µM in assay [6].

Consider `O=C(NCCC(c1ccc(-n2cc(-c3ccnc4[nH]cnc34)cn2)nc1)C(F)(F)F)C1CC1` (stereo not shown) [Example 1149, N-(3-(6-(4-(3H-imidazo[4,5-b]pyridin-7-yl)-1H-pyrazol-1-yl)pyridin-3-yl)-4,4,4-trifluorobutyl)cyclopropanecarboxamide], for which the IC50 in assay [1] is below 0.1 µM; in assay [2], above 0.1 µM; in assay [3], below 0.1 µM; in assay [4] it was above 1 µM; in assay [5], above 0.5 µM; in assay [6], above 0.5 µM.

As for `N#CCC(=O)NCCC(c1ccc(-n2cc(-c3ccnc4[nH]cnc34)cn2)nc1)C(F)(F)F` (stereo not shown) [Example 1248, N-(3-(6-(4-(3H-imidazo[4,5-b]pyridin-7-yl)-1H-pyrazol-1-yl)pyridin-3-yl)-4,4,4-trifluorobutyl)-2-cyanoacetamide], the IC50 was below 0.1 µM in assay [1]; below 0.1 µM in assay [2]; below 0.1 µM in assay [3]; above 0.5 µM in assay [4]; above 0.75 µM in assay [5]; above 0.8 µM in assay [6].

Regarding `CC(C)C(=O)NCCC(c1ccc(-n2cc(-c3ccnc4[nH]cnc34)cn2)nc1)C(F)(F)F` (stereo not shown) [Example 1247, N-(3-(6-(4-(3H-imidazo[4,5-b]pyridin-7-yl)-1H-pyrazol-1-yl)pyridin-3-yl)-4,4,4-trifluorobutyl)isobutyramide], the IC50 is 0.06 µM in assay [2]; 0.023 µM in assay [3]; 0.19 µM in assay [4]; above 1 µM in assay [5]; above 1 µM in assay [6].

Turning to `CC(=O)N1CC(C(O)(c2ccc(-n3cc(-c4ccnc5[nH]cnc45)cn3)nc2)C(F)(F)F)C1` (stereo not shown) [Example 1236, 1-(3-(1-(6-(4-(3H-imidazo[4,5-b]pyridin-7-yl)-1H-pyrazol-1-yl)pyridin-3-yl)-2,2,2-trifluoro-1-hydroxyethyl)azetidin-1-yl)ethanone], the IC50 is above 0.03 µM in assay [2]; above 0.03 µM in assay [3]; above 0.1 µM in assay [4]; above 1 µM in assay [5]; above 0.75 µM in assay [6].

With `CN1CCN(CCC(c2ccc(-n3cc(-c4ccnc5[nH]cnc45)cn3)nc2)C(F)(F)F)CC1` (stereo not shown) [Example 1219, 7-(1-(5-(1,1,1-trifluoro-4-(4-methylpiperazin-1-yl)butan-2-yl)pyridin-2-yl)-1H-pyrazol-4-yl)-3H-imidazo[4,5-b]pyridine], the IC50 in assay [1] was below 0.1 µM; in assay [2] it was below 0.1 µM; in assay [3] it was below 0.1 µM; in assay [4] it was above 0.5 µM; in assay [5] it was above 0.75 µM; in assay [7], above 1 µM.

Consider `N#CCc1coc(-n2cc(-c3ccnc4[nH]cnc34)cn2)n1` [Example 1075, 2-(2-(4-(3H-imidazo[4,5-b]pyridin-7-yl)-1H-pyrazol-1-yl)oxazol-4-yl)acetonitrile], for which the IC50 in assay [1] was 0.046 µM; in assay [2] it was 0.19 µM; in assay [3] it was below 0.5 µM; in assay [4], above 1 µM; in assay [5], 3.1 µM; in assay [7], above 10 µM.

`CS(=O)(=O)NCC(c1ccc(-n2cc(-c3ccnc4[nH]cnc34)cn2)nc1)C(F)(F)F` (stereo not shown) [Example 1209]: the IC50 in assay [1] was below 0.1 µM; in assay [2], below 0.1 µM; in assay [3] it was below 0.1 µM; in assay [4], above 1 µM; in assay [5] it was above 0.75 µM; in assay [7], above 1 µM.

Turning to `N#CC(c1ccc(-n2cc(-c3ccnc4[nH]cnc34)cn2)cc1)C1CC1` (stereo not shown) [Example 1100, 2-(4-(4-(3H-imidazo[4,5-b]pyridin-7-yl)-1H-pyrazol-1-yl)phenyl)-2-cyclopropylacetonitrile], the IC50 was above 0.5 µM in assay [1]; above 0.5 µM in assay [2]; above 0.5 µM in assay [3]; above 10 µM in assay [4]; above 10 µM in assay [5]; above 10 µM in assay [7].

Regarding `FC(F)(F)C(CCN1CCOCC1)c1ccc(-n2cc(-c3ccnc4[nH]cnc34)cn2)nc1` (stereo not shown) [Example 1201, 7-(1-(5-(1,1,1-trifluoro-4-morpholinobutan-2-yl)pyridin-2-yl)-1H-pyrazol-4-yl)-3H-imidazo[4,5-b]pyridine], the IC50 is below 0.1 µM in assay [1]; above 0.5 µM in assay [2]; below 0.1 µM in assay [3]; above 1 µM in assay [4]; above 0.5 µM in assay [5]; above 1 µM in assay [7].
